Among the data in patent publication US7851617B2, “Indole derivatives” (Mitsubishi Tanabe Pharma Corporation, priority 2006, dated 2010) are IC50 and Urinary glucose values, retold here.

Like-named read-outs stand apart in the source and are kept apart here.

As usually defined, the IC50 is the concentration that inhibits the measured activity by half.

One assay concerns the target T1, human SGLT2 (Homo sapiens, UniProt P31639).
T1 construct: expressed in transfected cells; host or cells: CHOK1 cells (selected with Geneticin)
T1 sequence (P31639 1-672): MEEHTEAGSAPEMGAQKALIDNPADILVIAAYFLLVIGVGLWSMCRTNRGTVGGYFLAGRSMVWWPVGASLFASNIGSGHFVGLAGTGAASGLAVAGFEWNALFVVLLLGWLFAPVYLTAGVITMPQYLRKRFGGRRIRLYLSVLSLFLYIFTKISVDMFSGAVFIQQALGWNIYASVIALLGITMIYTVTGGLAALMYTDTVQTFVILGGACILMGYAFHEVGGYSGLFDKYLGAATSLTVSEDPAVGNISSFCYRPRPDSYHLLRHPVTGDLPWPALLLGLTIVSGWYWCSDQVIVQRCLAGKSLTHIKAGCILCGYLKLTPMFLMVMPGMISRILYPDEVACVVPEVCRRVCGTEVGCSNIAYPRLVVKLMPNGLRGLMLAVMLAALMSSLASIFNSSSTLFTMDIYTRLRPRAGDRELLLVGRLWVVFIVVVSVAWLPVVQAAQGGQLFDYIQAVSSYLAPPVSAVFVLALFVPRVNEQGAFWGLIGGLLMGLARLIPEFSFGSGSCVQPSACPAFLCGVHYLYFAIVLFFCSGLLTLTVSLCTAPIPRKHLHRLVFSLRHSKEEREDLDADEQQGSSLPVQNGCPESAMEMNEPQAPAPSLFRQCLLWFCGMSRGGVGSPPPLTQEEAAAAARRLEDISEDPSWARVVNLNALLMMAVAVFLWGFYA
The assay is described as follows: Assay for SGLT2 inhibition (14C-AMG uptake). It counts as cell-based. The method, then: Compounds described in the above examples were used for the SGLT2 inhibition assay. CHOK1 cells expressing human SGLT2 were seeded in 24-well plates at a density of 400,000 cells/well in F-12 nutrient mixture (Ham's F-12) containing 10% fetal bovine serum, 400 μg/ml Geneticin, 50 units/ml sodium penicillin G (Gibco-BRL) and 50 μg/ml streptomycin sulfate. After 2 days of culture at 37° C. in a humidified atmosphere containing 5% CO2, cells were washed once with the assay buffer (137 mM NaCl, 5 mM KCl, 1 mM CaCl2, 1 mM MgCl2, 50 mM Hepes, and 20 mM Tris, pH 7.4) and incubated with 250 μl of the buffer containing test compounds for 10 min at 37° C. Test compounds were dissolved in DMSO. The final concentration of DMSO was 0.5%. The transport reaction was initiated by addition of 50 μl [^14C]-methyl-α-D-glucopyranoside (^14C-AMG) solution (final concentration, 0.5 mM). After incubation for 2 hours at 37° C., the uptake was stopped by aspiration of the incubation mixture, the cells were washed three times with ice-cold PBS. Then, cells were solubilized with 0.3 N NaOH and aliquots were taken for determination of radioactivity by a liquid scintillation counter. Nonspecific AMG uptake was defined as that which occurred in the presence of 100 μM of phlorizin, a specific inhibitor of sodium-dependent glucose cotransporter. Specific uptake was normalized for the protein concentrations measured by the method of Bradford. The 50% inhibitory concentration (IC50) values were calculated from dose-response curves by least square method.

In a further assay the test system is Sprague-Dawley (SD) rats. Nature of the assay: Urinary glucose excretion test in rats. It counts as in vivo, rat. Particulars: male SD rats, 30 mg/kg by oral gavage, urine collected for 24 hours, daily amount of glucose excreted per individual. How it is done:
Compounds described in the above examples were used for the Urinary glucose excretion test in rats.
6-week-old male Sprague-Dawley (SD) rats were housed in individual metabolic cages with free access to food and water from 2 days prior to the experiment. On the morning of the experiment, rats were administered vehicle (0.2% carboxymethyl cellulose solution containing 0.2% Tween80) or test compounds (30 mg/kg) by oral gavage at a volume of 10 ml/kg. Then, urine of the rat was collected for 24 hours, and the urine volume was measured. Subsequently, the glucose concentration in urine was quantified using the enzymatic assay kit and the daily amount of glucose excreted in urine per individual was calculated.

Setting [1] is: CHOK1 cells expressing human SGLT2, 14C-AMG uptake, 2 hours at 37° C., read-out: IC50.

On to `OC[C@H]1O[C@@H](n2cc(Cc3ccc(C4CC4)cc3)c3c(Cl)cc(F)cc32)[C@H](O)[C@@H](O)[C@@H]1O` [Example 4, 4-Chloro-3-(4-cyclopropylphenylmethyl)-6-fluoro-1-(β-D-gluco-pyranosyl) indole], for which the IC50 on human SGLT2 (setting [1]) was 3.6 nM. Also, the Urinary glucose result in the assay on Sprague-Dawley (SD) rats is “C (2000 mg>C)”.

For the molecule `OC[C@H]1O[C@@H](n2cc(Cc3ccc(C4CC4)cc3)c3c(F)cccc32)[C@H](O)[C@@H](O)[C@@H]1O` [Example 1, 3-(4-Cyclopropylphenylmethyl)-4-fluoro-1-(β-D-gluco-pyranosyl)indole], the IC50 on human SGLT2 (setting [1]) worked out at 1.9 nM. Further, in the assay on Sprague-Dawley (SD) rats, the Urinary glucose result was “B (2400 mg>B≧2000 mg)”.

`OC[C@H]1O[C@@H](n2cc(Cc3ccc(C4CC4)cc3)c3c(F)cc(F)cc32)[C@H](O)[C@@H](O)[C@@H]1O` [Example 3, 3-(4-Cyclopropylphenylmethyl)-4,6-difluoro-1-(β-D-gluco-pyranosyl) indole]: the IC50 at human SGLT2 (setting [1]) was 2.8 nM. Further, in the assay on Sprague-Dawley (SD) rats, the Urinary glucose entry is reported as “B (2400 mg>B≧2000 mg)”.

In the case of `OC[C@H]1O[C@@H](n2cc(Cc3ccc(C4CC4)cc3)c3c(Cl)cccc32)[C@H](O)[C@@H](O)[C@@H]1O` [Example 2, 4-Chloro-3-(4-cyclopropylphenyl-methyl)-1-(β-D-glucopyranosyl)indole], half-maximal inhibition on human SGLT2 (IC50) was put at 2.3 nM. Also, in the assay on Sprague-Dawley (SD) rats, the Urinary glucose entry is given as “A (A≧2400 mg)”.
